The text below walks through data of patent US20240050428A1 (Cullgen (Shanghai), Inc., priority 2020, published 2024).

Structures are written as SMILES. Read-outs that look alike come from different tables or passages of the source.

One test relates to MV4;11 cells. The experiment in a line: Cell viability assay (CellTiter-Glo) in MV4;11 cells, alone or with gilteritinib. Conditions: Homo sapiens, MV4-11, 72 h, MV4;11 cells, three days, CellTiter-Glo, read-out: MV4. Type of test: cell-based.
The subject of a further test is MOLM-13 cells. The experiment in a line: Cell viability assay (CellTiter-Glo) in MOLM-13 cells, alone or with gilteritinib. Type of test: cell-based. Conditions: Homo sapiens, MOLM-13, 72 h, MOLM-13 cells, three days, CellTiter-Glo.
Where [1] appears, read: compound alone (without gilteritinib), 11 IC50.
[2] abbreviates: with gilteritinib 10 nM, 11 IC50 gilteritinib.
Where [3] appears, read: compound alone (without gilteritinib), read-out: MOLM-13 IC50.
Where [4] appears, read: with gilteritinib 20 nM, read-out: MOLM-13 IC50 gilteritinib.

Take `O=C1CCC(N2C(=O)c3ccc(NCCNCC4CC4n4cc(-c5cnc6ccccc6n5)cn4)cc3C2=O)C(=O)N1` (centres unmarked) [GS-118, 2-(2,6-Dioxopiperidin-3-yl)-5-((2-(((2-(4-(quinoxalin-2-yl)-1H-pyrazol-1-yl)cyclopropyl)methyl)amino)ethyl)amino)isoindoline-1,3-dione]: the IC50 with MV4;11 cells (setting [1]) was > 1000 nM; in the test on MV4;11 cells (setting [2]), > 1000 nM; in the test with MOLM-13 cells (setting [3]), 10 to 100 nM; in the test with MOLM-13 cells (setting [4]), < 10 nM.

Take `O=C1CCC(N2Cc3c(NC4CCCC(Nc5ccnc(N6CCC(n7cc(-c8cnc9ccccc9n8)cn7)CC6)n5)C4)cccc3C2=O)C(=O)N1` (centres unmarked) [GS-119, 3-(1-Oxo-4-((3-((2-(4-(4-(quinoxalin-2-yl)-1H-pyrazol-1-yl)piperidin-1-yl)pyrimidin-4-yl)amino)cyclohexyl)amino)isoindolin-2-yl)piperidine-2,6-dione]: the IC50 with MV4;11 cells (setting [1]) was > 1000 nM; in the test on MV4;11 cells (setting [2]), 10 to 100 nM; with MOLM-13 cells (setting [3]) it was > 1000 nM; in the test on MOLM-13 cells (setting [4]) it was 100 to 1000 nM.

Consider `O=C1CCC(N2Cc3cc(CNC(=O)C45CC(C(=O)N6CCC(n7cc(-c8cnc9ccccc9n8)cn7)CC6)(C4)C5)ccc3C2=O)C(=O)N1` (centres unmarked) [GS-120, N-((2-(2,6-dioxopiperidin-3-yl)-1-oxoisoindolin-5-yl)methyl)-3-(4-(4-(quinoxalin-2-yl)-1H-pyrazol-1-yl)piperidine-1-carbonyl)bicyclo[1.1.1]pentane-1-carboxamide], for which the IC50 was 10 to 100 nM in the test on MV4;11 cells (setting [1]), < 10 nM with MV4;11 cells (setting [2]), 10 to 100 nM in the test with MOLM-13 cells (setting [3]) and < 10 nM in the test on MOLM-13 cells (setting [4]).

As for `O=C(CC12CC(C(=O)N3CCC(n4cc(-c5cnc6ccccc6n5)cn4)CC3)(C1)C2)NCc1ccc2c(c1)CN(C1CCC(=O)NC1=O)C2=O` (centres unmarked) [GS-121, N-((2-(2,6-dioxopiperidin-3-yl)-1-oxoisoindolin-5-yl)methyl)-2-(3-(4-(4-(quinoxalin-2-yl)-1H-pyrazol-1-yl)piperidine-1-carbonyl)bicyclo[1.1.1]pentan-1-yl)acetamide], the IC50 was 100 to 1000 nM in the test on MV4;11 cells (setting [1]), 10 to 100 nM in the test with MV4;11 cells (setting [2]), > 1000 nM in the test with MOLM-13 cells (setting [3]) and 100 to 1000 nM in the test with MOLM-13 cells (setting [4]).

In the case of `O=C(Cc1ccc(N2CCC(n3cc(-c4cnc5ccccc5n4)cn3)CC2)cc1)NCc1ccc2c(c1)CN(C1CCC(=O)NC1=O)C2=O` (centres unmarked) [GS-122, N-((2-(2,6-dioxopiperidin-3-yl)-1-oxoisoindolin-5-yl)methyl)-2-(4-(4-(4-(quinoxalin-2-yl)-1H-pyrazol-1-yl)piperidin-1-yl)phenyl)acetamide], the IC50 in the test with MV4;11 cells (setting [1]), in the test on MV4;11 cells (setting [2]), in the test with MOLM-13 cells (setting [3]) and with MOLM-13 cells (setting [4]) was < 10 nM each time.

`O=C1CCC(N2C(=O)c3ccc(NCCCCCC4(N5CCC(n6cc(-c7cnc8ccccc8n7)cn6)CC5)CC4)cc3C2=O)C(=O)N1` (centres unmarked) [GS-123, 2-(2,6-Dioxopiperidin-3-yl)-5-((5-(1-(4-(4-(quinoxalin-2-yl)-1H-pyrazol-1-yl)piperidin-1-yl)cyclopropyl)pentyl)amino)isoindoline-1,3-dione]: the IC50 is 100 to 1000 nM with MV4;11 cells (setting [1]), 100 to 1000 nM in the test on MV4;11 cells (setting [2]), > 1000 nM in the test with MOLM-13 cells (setting [3]) and < 10 nM in the test on MOLM-13 cells (setting [4]).

Consider `O=C1CCC(N2C(=O)c3ccc(NCCCCC4(N5CCC(n6cc(-c7cnc8ccccc8n7)cn6)CC5)CC4)cc3C2=O)C(=O)N1` (centres unmarked) [GS-124, 2-(2,6-Dioxopiperidin-3-yl)-5-((4-(1-(4-(4-(quinoxalin-2-yl)-1H-pyrazol-1-yl)piperidin-1-yl)cyclopropyl)butyl)amino)isoindoline-1,3-dione], for which the IC50 in the test with MV4;11 cells (setting [1]) is > 1000 nM; with MV4;11 cells (setting [2]), > 1000 nM; in the test with MOLM-13 cells (setting [3]), > 1000 nM; with MOLM-13 cells (setting [4]), 10 to 100 nM.

Take `O=C1CCC(N2Cc3c(NC4CCCC(Nc5nccc(N6CCC(n7cc(-c8cnc9ccccc9n8)cn7)CC6)n5)C4)cccc3C2=O)C(=O)N1` (centres unmarked) [GS-125, 3-(1-Oxo-4-((3-((4-(4-(4-(quinoxalin-2-yl)-1H-pyrazol-1-yl)piperidin-1-yl)pyrimidin-2-yl)amino)cyclohexyl)amino)isoindolin-2-yl)piperidine-2,6-dione]: the IC50 is 100 to 1000 nM in the test with MV4;11 cells (setting [1]), 100 to 1000 nM in the test with MV4;11 cells (setting [2]), > 1000 nM with MOLM-13 cells (setting [3]) and > 1000 nM with MOLM-13 cells (setting [4]).

For `O=C1CCC(N2Cc3cc(NCCCCCC4(N5CCC(n6cc(-c7cnc8ccccc8n7)cn6)CC5)CC4)ccc3C2=O)C(=O)N1` (centres unmarked) [GS-126, 3-(1-Oxo-5-((5-(1-(4-(4-(quinoxalin-2-yl)-1H-pyrazol-1-yl)piperidin-1-yl)cyclopropyl)pentyl)amino)isoindolin-2-yl)piperidine-2,6-dione], the IC50 was 100 to 1000 nM in the test with MV4;11 cells (setting [1]), > 1000 nM with MV4;11 cells (setting [2]), > 1000 nM in the test with MOLM-13 cells (setting [3]) and > 1000 nM with MOLM-13 cells (setting [4]).

For `CC(CCCCCCc1ccc2c(c1)C(=O)N(C1CCC(=O)NC1=O)C2)n1cc(-c2cnc3ccccc3n2)cn1` (centres unmarked) [GS-127, 3-(1-Oxo-6-(7-(4-(quinoxalin-2-yl)-1H-pyrazol-1-yl)octyl)isoindolin-2-yl)piperidine-2,6-dione], the IC50 with MV4;11 cells (setting [1]) is > 1000 nM; in the test with MV4;11 cells (setting [2]), 100 to 1000 nM; with MOLM-13 cells (setting [3]), > 1000 nM; in the test with MOLM-13 cells (setting [4]), 100 to 1000 nM.

For the compound `O=C1CCC(N2Cc3ccc(NCCCCCCn4cc(-c5cnc6ccccc6n5)cn4)cc3C2=O)C(=O)N1` (centres unmarked) [GS-128, 3-(1-Oxo-6-((6-(4-(quinoxalin-2-yl)-1H-pyrazol-1-yl)hexyl)amino)isoindolin-2-) piperidine-2,6-dione], the IC50 with MV4;11 cells (setting [1]), in the test with MV4;11 cells (setting [2]), in the test on MOLM-13 cells (setting [3]) and in the test on MOLM-13 cells (setting [4]) was > 1000 nM in each case.

On to `O=C1CCC(N2C(=O)c3ccc(NCCCCS(=O)(=O)N4CCC(n5cc(-c6cnc7ccccc7n6)cn5)CC4)cc3C2=O)C(=O)N1` (centres unmarked) [GS-129, 2-(2,6-Dioxopiperidin-3-yl)-5-((4-((4-(4-(quinoxalin-2-yl)-1H-pyrazol-1-yl)piperidin-1-yl)sulfonyl)butyl)amino)isoindoline-1,3-dione], for which the IC50 was > 1000 nM with MV4;11 cells (setting [1]), 100 to 1000 nM in the test on MV4;11 cells (setting [2]), > 1000 nM with MOLM-13 cells (setting [3]) and 100 to 1000 nM in the test on MOLM-13 cells (setting [4]).

Regarding `O=C(CC12CC(N3CCC(n4cc(-c5cnc6ccccc6n5)cn4)CC3)(C1)C2)NCc1ccc2c(c1)CN(C1CCC(=O)NC1=O)C2=O` (centres unmarked) [GS-130, N-((2-(2,6-dioxopiperidin-3-yl)-1-oxoisoindolin-5-yl)methyl)-2-(3-(4-(4-(quinoxalin-2-yl)-1H-pyrazol-1-yl)piperidin-1-yl)bicyclo[1.1.1]pentan-1-yl)acetamide], the IC50 with MV4;11 cells (setting [1]), in the test with MV4;11 cells (setting [2]), with MOLM-13 cells (setting [3]) and in the test on MOLM-13 cells (setting [4]) was > 1000 nM each time.

For `O=C1CCC(N2Cc3ccc(NCCCC4CC(n5cc(-c6cnc7ccccc7n6)cn5)C4)cc3C2=O)C(=O)N1` (centres unmarked) [GS-131, 3-(1-Oxo-6-((3-(3-(4-(quinoxalin-2-yl)-1H-pyrazol-1-yl)cyclobutyl)propyl)amino)isoindolin-2-yl)piperidine-2,6-dione], the IC50 with MV4;11 cells (setting [1]), in the test on MV4;11 cells (setting [2]), in the test with MOLM-13 cells (setting [3]) and with MOLM-13 cells (setting [4]) was > 1000 nM throughout.

For the compound `O=C1CCC(N2C(=O)c3ccc(NCCCNC(=O)N4CCC(n5cc(-c6cnc7ccccc7n6)cn5)CC4)cc3C2=O)C(=O)N1` (centres unmarked) [GS-132, N-(3-((2-(2,6-dioxopiperidin-3-yl)-1,3-dioxoisoindolin-5-yl)amino)propyl)-4-(4-(quinoxalin-2-yl)-1H-pyrazol-1-yl)piperidine-1-carboxamide], the IC50 in the test on MV4;11 cells (setting [1]), with MV4;11 cells (setting [2]), in the test on MOLM-13 cells (setting [3]) and in the test on MOLM-13 cells (setting [4]) was < 10 nM each time.

For the compound `O=C1CCC(N2Cc3c(NC4CCCN(Cc5cccc(N6CCC(n7cc(-c8cnc9ccccc9n8)cn7)CC6)c5)C4)cccc3C2=O)C(=O)N1` (centres unmarked) [GS-133, 3-(1-Oxo-4-((1-(3-(4-(4-(quinoxalin-2-yl)-1H-pyrazol-1-yl)piperidin-1-yl)benzyl)piperidin-3-yl)amino)isoindolin-2-yl)piperidine-2,6-dione], the IC50 in the test with MV4;11 cells (setting [1]), in the test on MV4;11 cells (setting [2]), in the test with MOLM-13 cells (setting [3]) and with MOLM-13 cells (setting [4]) was > 1000 nM throughout.

`Cc1nc2ccccc2nc1-c1cnn(CCCCCCCc2ccc3c(c2)C(=O)N(C2CCC(=O)NC2=O)C3)c1` (centres unmarked) [GS-134, 3-(6-(7-(4-(3-Methylquinoxalin-2-yl)-1H-pyrazol-1-yl)heptyl)-1-oxoisoindolin-2-yl)piperidine-2,6-dione]: the IC50 in the test on MV4;11 cells (setting [1]) is 10 to 100 nM; in the test with MV4;11 cells (setting [2]), 10 to 100 nM; with MOLM-13 cells (setting [3]), 10 to 100 nM; in the test on MOLM-13 cells (setting [4]), < 10 nM.

With `O=C1CCC(N2Cc3c(NC4CCCC(Nc5cccc(N6CCC(c7cccc(Cl)c7)CC6)c5)C4)cccc3C2=O)C(=O)N1` (centres unmarked) [GS-135, 3-(4-((3-((3-(4-(3-Chlorophenyl)piperidin-1-yl)phenyl)amino)cyclohexyl)amino)-1-oxoisoindolin-2-yl)piperidine-2,6-dione], the IC50 in the test with MV4;11 cells (setting [1]) is > 1000 nM; in the test on MV4;11 cells (setting [2]) it was 100 to 1000 nM; in the test on MOLM-13 cells (setting [3]) it was > 1000 nM; in the test on MOLM-13 cells (setting [4]), > 1000 nM.

As for `O=C1CCC(N2C(=O)c3ccc(NCCCCC(=O)N4C5CCC4CC(n4cc(-c6cnc7ccccc7n6)cn4)C5)cc3C2=O)C(=O)N1` (centres unmarked) [GS-136, 2-(2,6-Dioxopiperidin-3-yl)-5-((5-oxo-5-(3-(4-(quinoxalin-2-yl)-1H-pyrazol-1-yl)-8-azabicyclo[3.2.1]octan-8-yl)pentyl)amino)isoindoline-1,3-dione], the IC50 in the test with MV4;11 cells (setting [1]), in the test with MV4;11 cells (setting [2]), in the test on MOLM-13 cells (setting [3]) and in the test with MOLM-13 cells (setting [4]) was > 1000 nM throughout.

In the case of `O=C1CCC(N2Cc3cc(NCCCCC4(N5CCC(n6cc(-c7cnc8ccccc8n7)cn6)CC5)CC4)ccc3C2=O)C(=O)N1` (centres unmarked) [GS-137, 3-(1-Oxo-5-((4-(1-(4-(4-(quinoxalin-2-yl)-1H-pyrazol-1-yl)piperidin-1-yl)cyclopropyl)butyl)amino)isoindolin-2-yl)piperidine-2,6-dione], the IC50 in the test with MV4;11 cells (setting [1]), with MV4;11 cells (setting [2]), with MOLM-13 cells (setting [3]) and with MOLM-13 cells (setting [4]) was > 1000 nM throughout.
